Data published in patent publication US20200369728A1, “PEPTIDOMIMETIC MACROCYCLES AND USES THEREOF” (Aileron Therapeutics, Inc., priority 2015, published 2020).
Bridge positions count the residues as written; N and C are the ends. Square brackets hold non-standard residues; d marks the D form. Peptide text beside a SMILES is read from it. Phe(4-COOH) = N[C@@H](Cc1ccc(C(=O)O)cc1)C(=O)O; R8 = C=CCCCCCC[C@@](C)(N)C(=O)O; Cba = N[C@@H](CC1CCC1)C(=O)O; S5 = C=CCCC[C@](C)(N)C(=O)O; Nle = CCCC[C@H](N)C(=O)O

What was measured:
[1] = Circular dichroism (CD) analysis of alpha-helicity; assay type: physicochemical
Procedure: Peptide solutions were analyzed by CD spectroscopy using a Jasco J-815 spectropolarimeter (Jasco Inc., Easton, Md.) with the Jasco Spectra Manager Ver. 2 system software. A Peltier temperature controller was used to maintain temperature control of the optical cell. Results are expressed as mean molar ellipticity (deg cm^2 dmol^−1) as calculated from the equation [0]=θobs·MRW/10*l*c where θobs is the observed ellipticity in millidegrees, MRW is the mean residue weight of the peptide (peptide molecular weight/number of residues), 1 is the optical path length of the cell in centimeters, and c is the peptide concentration in mg/ml. Peptide concentrations were determined by amino acid analysis. Stock solutions of peptides were prepared in benign CD buffer (20 mM phosphoric acid, pH 2). The stocks were used to prepare peptide solutions of 0.05 mg/ml in either benign CD buffer or CD buffer with 50% trifluoroethanol (TFE) for analyses in a 10 mm pathlength cell. Variable wavelength measurements of peptide solutions were scanned at 4° C. from 195 to 250 nm, in 0.2 nm increments, and a scan rate 50 nm per minute. The average of six scans was reported.

[2] = tested on: RKO; assay: Cell viability assay (MTT), RKO; details: read-out: RKO EC50 (72 h)
[3] = tested on: Caspase 3; assay: Caspase 3 detection assay in SJSA1 cells; assay type: cell-based; details: SJSA1, 48 h, Caspase 3 activation over DMSO-treated cells
[4] = tested on: SJSA-1 cells; assay: Cell lysis by peptidomimetic macrocycles (LDH release); assay type: cell-based; details: SJSA-1, 1 h
Outline: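 SJSA-1 cells plated the day before, switched to RPMI with 1% FBS, then exposed 1 h at 37 °C to macrocycle at final 50 μM to 6.25 μM in 0.5% DMSO. LDH released into the supernatant was measured by kit. Controls: 0.5% DMSO (non-lytic), 10 μM melittin and 1% Triton X-100 (lytic).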

SMILES: CCCC[C@H](NC(=O)[C@H](CCC(N)=O)NC(=O)[C@H](CCC(N)=O)NC(=O)[C@]1(C)CCCC=CCCCCCC[C@@](C)(NC(=O)[C@H](Cc2ccccc2)NC(C)=O)C(=O)N[C@@H](C)C(=O)N[C@@H](Cc2ccc(O)cc2)C(=O)N[C@@H](Cc2c[nH]c3ccccc23)C(=O)N[C@@H]([C@@H](C)O)C(=O)N[C@@H](C)C(=O)N[C@@H](CC(C)C)C(=O)N1)C(=O)N[C@@H](C(N)=O)C(C)C [compound 41] (Ac-F[R8]AYWTAL[S5]QQ[Nle][dV]-NH2; staple 2-9)
- % Helix 50% TFE compared to 50% TFE parent (CD) ([1]; 50% TFE): 136%
- Molar Ellipticity 50% TFE (222 in 50% TFE) ([1]; 222 nm, CD buffer with 50% TFE, 0.05 mg/ml, 4° C.): −21319.4 deg cm^2 dmol^−1
- Molar Ellipticity Benign (222 in 0% TFE) ([1]; 222 nm, benign CD buffer (20 mM phosphoric acid, pH 2), 0.05 mg/ml, 4° C.): −909 deg cm^2 dmol^−1
- % Helix benign compared to 50% TFE parent (CD) ([1]; benign buffer): 5.8%

SMILES: CC(=O)N[C@@H](CC(C)C)C(=O)N[C@H](C(=O)N[C@@H](Cc1ccccc1)C(=O)N[C@]1(C)CCCCCCC=CCCC[C@@](C)(C(=O)N[C@@H](CO)C(=O)N[C@@H](C)C(=O)N[C@@H](CO)C(N)=O)NC(=O)[C@H](CC(C)C)NC(=O)[C@H](CCC(N)=O)NC(=O)[C@H](C)NC(=O)[C@H](Cc2c[nH]c3ccccc23)NC(=O)[C@H](Cc2ccc(O)cc2)NC(=O)[C@H](C)NC1=O)[C@@H](C)O [compound 122] (Ac-LTF[R8]AYWAQL[S5]SAS-NH2; staple 4-11)
- EC50 [2]: 5 to 15 µM
- caspase 0.3 μM [3]: 1
- caspase 3 μM [3]: 2
- caspase 10 μM [3]: 15
- caspase 30 μM [3]: 30
- 6.25 μM % Lysed cells (1 h LDH) [4]: 1%
- 25 μM % Lysed cells (1 h LDH) [4]: 0%
- 50 μM % Lysed cells (1 h LDH) [4]: 6%

SMILES: CC(=O)N[C@@H](CCC(=O)O)C(=O)N[C@H](C(=O)N[C@@H](Cc1ccccc1)C(=O)N[C@]1(C)CCCCCCC=CCCC[C@@](C)(C(=O)N[C@@H](CO)C(=O)N[C@@H](C)C(=O)N[C@@H](C)C(N)=O)NC(=O)[C@H](CC(C)C)NC(=O)[C@H](CCC(N)=O)NC(=O)[C@H](C)NC(=O)[C@H](Cc2c[nH]c3ccccc23)NC(=O)[C@H](Cc2ccc(O)cc2)NC(=O)[C@H](C(C)C)NC1=O)[C@@H](C)O [compound 125] (Ac-ETF[R8]VYWAQL[S5]SAA-NH2; staple 4-11)
- EC50 [2]: 5 to 15 µM
- caspase 0.3 μM [3]: 1
- caspase 3 μM [3]: 3
- caspase 10 μM [3]: 9
- caspase 30 μM [3]: 29
- 6.25 μM % Lysed cells (1 h LDH) [4]: 0%
- 25 μM % Lysed cells (1 h LDH) [4]: 0%
- 50 μM % Lysed cells (1 h LDH) [4]: 2%

SMILES: CC(=O)N[C@@H](CCC(=O)O)C(=O)N[C@H](C(=O)N[C@@H](Cc1ccccc1)C(=O)N[C@]1(C)CCCCCCC=CCCC[C@@](C)(C(=O)N[C@@H](CO)C(=O)N[C@H](C(=O)N[C@@H](C)C(N)=O)C(C)C)NC(=O)[C@H](CC(C)C)NC(=O)[C@H](CCC(N)=O)NC(=O)[C@H](C)NC(=O)[C@H](Cc2c[nH]c3ccccc23)NC(=O)[C@H](Cc2ccc(O)cc2)NC(=O)[C@H](C(C)C)NC1=O)[C@@H](C)O [compound 126] (Ac-ETF[R8]VYWAQL[S5]SVA-NH2; staple 4-11)
- EC50 [2]: > 30 µM
- caspase 0.3 μM [3]: 1
- caspase 3 μM [3]: 1
- caspase 10 μM [3]: 6
- caspase 30 μM [3]: 30
- 6.25 μM % Lysed cells (1 h LDH) [4]: 1%
- 25 μM % Lysed cells (1 h LDH) [4]: 1%
- 50 μM % Lysed cells (1 h LDH) [4]: 1%

SMILES: CC(=O)N[C@@H](CC(C)C)C(=O)N[C@H](C(=O)N[C@@H](Cc1ccc(F)c(F)c1)C(=O)N[C@]1(C)CCCCCC/C=C/CCC[C@@](C)(C(=O)N[C@@H](CO)C(=O)N[C@@H](C)C(=O)N[C@@H](C)C(N)=O)NC(=O)[C@H](CCC(C)C)NC(=O)[C@H](CCC(N)=O)NC(=O)[C@H](C)NC(=O)[C@H](Cc2c[nH]c3ccccc23)NC(=O)[C@H](Cc2ccc(O)cc2)NC(=O)[C@H](CCC(=O)O)NC1=O)[C@@H](C)O [compound 160]
- EC50 [2]: > 30 µM
- caspase 0.3 μM [3]: 2
- caspase 3 μM [3]: 10
- caspase 10 μM [3]: 16
- caspase 30 μM [3]: 31
- 6.25 μM % Lysed cells (1 h LDH) [4]: −1%
- 25 μM % Lysed cells (1 h LDH) [4]: −1%
- 50 μM % Lysed cells (1 h LDH) [4]: 1%

SMILES: CC(=O)N[C@@H](CCC(=O)O)C(=O)N[C@H](C(=O)N[C@@H](Cc1ccccc1)C(=O)N[C@]1(C)CCCCCCC=CCCC[C@@](C)(C(=O)N[C@@H](CO)C(=O)N[C@@H](C)C(=O)N[C@@H](C)C(N)=O)NC(=O)[C@H](CC(C)C)NC(=O)[C@H](CCC(N)=O)NC(=O)[C@H](C)NC(=O)[C@H](Cc2c[nH]c3ccccc23)NC(=O)[C@H](Cc2ccc(O)cc2)NC(=O)[C@H](CCC(=O)O)NC1=O)[C@@H](C)O [compound 161] (Ac-ETF[R8]EYWAQL[S5]SAA-NH2; staple 4-11)
- EC50 [2]: > 30 µM
- caspase 0.3 μM [3]: 2
- caspase 3 μM [3]: 8
- caspase 10 μM [3]: 14
- caspase 30 μM [3]: 22
- 6.25 μM % Lysed cells (1 h LDH) [4]: 1%
- 25 μM % Lysed cells (1 h LDH) [4]: −1%
- 50 μM % Lysed cells (1 h LDH) [4]: 0%

SMILES: CC(=O)N[C@@H](CC(C)C)C(=O)N[C@H](C(=O)N[C@@H](Cc1ccccc1)C(=O)N[C@]1(C)CCCCCCC=CCCC[C@@](C)(C(=O)N[C@@H](CO)C(=O)N[C@@H](C)C(=O)N[C@@H](C)C(N)=O)NC(=O)[C@H](CC(C)C)NC(=O)[C@H](C)NC(=O)[C@H](C(C)C)NC(=O)[C@H](Cc2c[nH]c3ccccc23)NC(=O)[C@H](Cc2ccc(O)cc2)NC(=O)[C@H](C)NC1=O)[C@@H](C)O [compound 196] (Ac-LTF[R8]AYWVAL[S5]SAA-NH2; staple 4-11)
- EC50 [2]: < 5 µM
- caspase 0.3 μM [3]: 1
- caspase 3 μM [3]: 4
- caspase 10 μM [3]: 33
- caspase 30 μM [3]: 26
- 6.25 μM % Lysed cells (1 h LDH) [4]: 0%
- 25 μM % Lysed cells (1 h LDH) [4]: 0%
- 50 μM % Lysed cells (1 h LDH) [4]: 3%

SMILES: CC[C@H](C)[C@H](NC(=O)[C@H](C)NC(=O)[C@H](C)NC(=O)[C@]1(C)CCC/C=C/CCCCCC[C@@](C)(NC(=O)[C@H](Cc2ccccc2)NC(=O)[C@@H](NC(=O)[C@H](CC(C)C)NC(C)=O)[C@@H](C)O)C(=O)N[C@@H](CCC(=O)O)C(=O)N[C@@H](Cc2ccc(C(=O)O)cc2)C(=O)N[C@@H](Cc2c[nH]c3ccccc23)C(=O)N[C@@H](C)C(=O)N[C@@H](CCC(N)=O)C(=O)N[C@@H](CC2CCC2)C(=O)N1)C(=O)N[C@H](C)C(N)=O [compound 249] (Ac-LTF[R8]E[Phe(4-COOH)]WAQ[Cba][S5]AAI[dA]-NH2; staple (E) 4-11)
- EC50 [2]: < 5 µM
- caspase 0.3 μM [3]: 2
- caspase 3 μM [3]: 5
- caspase 10 μM [3]: 11
- caspase 30 μM [3]: 23
- 6.25 μM % Lysed cells (1 h LDH) [4]: 0%
- 25 μM % Lysed cells (1 h LDH) [4]: 0%
- 50 μM % Lysed cells (1 h LDH) [4]: 0%

SMILES: CC(=O)N[C@@H](CC(C)C)C(=O)N[C@H](C(=O)N[C@@H](Cc1ccccc1)C(=O)N[C@]1(C)CCCCCC/C=C/CCC[C@@](C)(C(=O)N[C@@H](C)C(=O)N[C@@H](C)C(=O)N[C@@H](C)C(=O)N[C@@H](C)C(=O)N[C@@H](C)C(=O)N[C@H](C)C(N)=O)NC(=O)[C@H](CC2CCC2)NC(=O)[C@H](CCC(N)=O)NC(=O)[C@H](C)NC(=O)[C@H](Cc2c[nH]c3ccccc23)NC(=O)[C@H](Cc2ccc(C(=O)O)cc2)NC(=O)[C@H](CCC(=O)O)NC1=O)[C@@H](C)O [compound 349]
- EC50 [2]: 5 to 15 µM
- caspase 0.3 μM [3]: 1
- caspase 1 μM [3]: 8
- caspase 3 μM [3]: 11
- caspase 10 μM [3]: 16
- caspase 30 μM [3]: 24
- 6.25 μM % Lysed cells (1 h LDH) [4]: 0%
- 25 μM % Lysed cells (1 h LDH) [4]: 0%
- 50 μM % Lysed cells (1 h LDH) [4]: 0%

SMILES: CC(=O)N[C@@H](CC(C)C)C(=O)N[C@H](C(=O)N[C@@H](Cc1ccccc1)C(=O)N[C@]1(C)CCCCCC/C=C/CCC[C@@](C)(C(=O)N[C@@H](C)C(=O)N[C@@H](C)C(=O)N[C@@H](C)C(=O)N[C@@H](C)C(=O)N[C@@H](C)C(=O)N[C@H](C)C(N)=O)NC(=O)[C@H](CC2CCC2)NC(=O)[C@H](CCC(N)=O)NC(=O)[C@H](CO)NC(=O)[C@H](Cc2c[nH]c3ccccc23)NC(=O)[C@H](Cc2ccc(O)cc2)NC(=O)[C@H](CCC(=O)O)NC1=O)[C@@H](C)O [compound 351]
- EC50 [2]: 5 to 15 µM
- caspase 0.3 μM [3]: 3
- caspase 1 μM [3]: 9
- caspase 3 μM [3]: 13
- caspase 10 μM [3]: 15
- caspase 30 μM [3]: 24
- 6.25 μM % Lysed cells (1 h LDH) [4]: 0%
- 25 μM % Lysed cells (1 h LDH) [4]: 0%
- 50 μM % Lysed cells (1 h LDH) [4]: 0%
